These results are taken from ChEMBL document CHEMBL5465560, “Selectivity Literature for EUbOPEN Chemogenomic Library” (2024).

Assay [1] has as its target T1, STE20-related kinase adapter protein alpha (Homo sapiens) (UniProt Q7RTN6).
T1 sequence (whole entry): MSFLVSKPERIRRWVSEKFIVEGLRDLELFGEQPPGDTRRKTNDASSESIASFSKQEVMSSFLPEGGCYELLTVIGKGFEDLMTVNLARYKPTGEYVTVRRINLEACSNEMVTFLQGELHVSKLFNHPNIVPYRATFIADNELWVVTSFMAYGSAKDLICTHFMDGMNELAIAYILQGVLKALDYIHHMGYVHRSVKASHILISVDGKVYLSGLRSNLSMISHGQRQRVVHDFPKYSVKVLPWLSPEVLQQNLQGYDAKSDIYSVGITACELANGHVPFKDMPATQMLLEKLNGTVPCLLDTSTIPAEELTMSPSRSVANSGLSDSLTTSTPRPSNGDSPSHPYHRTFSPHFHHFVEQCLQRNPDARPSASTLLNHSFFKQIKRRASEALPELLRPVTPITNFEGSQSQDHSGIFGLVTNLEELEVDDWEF
As to the kind of experiment: Selectivity interaction (Kinase panel (KiNativ target engagement assay in Jurkat cells)) EUB0001635a STRADA. The settings on record: Selectivity number of off-targets 0.0, Selectivity number of targets 233.0, Source Knowledge https://www.sciencedirect.com/science/article/pii/S2451945619300674?via%3Dihub, at 1 µM. It counts as cell-based.

Assay [2] deals with T2, Hormonally up-regulated neu tumor-associated kinase (Homo sapiens) (UniProt P57058).
T2 sequence (whole entry): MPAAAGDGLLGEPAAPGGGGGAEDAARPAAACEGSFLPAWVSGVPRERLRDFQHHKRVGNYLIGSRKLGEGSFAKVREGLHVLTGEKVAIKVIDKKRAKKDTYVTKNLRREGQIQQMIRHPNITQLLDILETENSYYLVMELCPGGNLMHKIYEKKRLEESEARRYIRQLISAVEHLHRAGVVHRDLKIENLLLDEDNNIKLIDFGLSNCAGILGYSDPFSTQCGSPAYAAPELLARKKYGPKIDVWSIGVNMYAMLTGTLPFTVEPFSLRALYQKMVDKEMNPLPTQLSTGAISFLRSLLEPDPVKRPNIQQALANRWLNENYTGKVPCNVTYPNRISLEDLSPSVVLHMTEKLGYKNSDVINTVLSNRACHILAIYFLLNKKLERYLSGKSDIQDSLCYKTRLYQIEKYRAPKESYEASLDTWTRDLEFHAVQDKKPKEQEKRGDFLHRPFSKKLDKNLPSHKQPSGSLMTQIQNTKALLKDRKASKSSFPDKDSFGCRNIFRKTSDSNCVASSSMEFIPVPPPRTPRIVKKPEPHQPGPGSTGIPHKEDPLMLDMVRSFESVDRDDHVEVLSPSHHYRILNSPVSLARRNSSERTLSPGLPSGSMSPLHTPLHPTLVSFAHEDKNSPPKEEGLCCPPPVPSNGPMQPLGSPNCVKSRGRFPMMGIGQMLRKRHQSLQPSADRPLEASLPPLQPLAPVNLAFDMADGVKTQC
The settings on record: at 10 µM.

Assay [3] has as its target T3, Phosphatidylinositol 4,5-bisphosphate 3-kinase catalytic subunit delta isoform (Homo sapiens) (UniProt O00329).
T3 sequence (whole entry): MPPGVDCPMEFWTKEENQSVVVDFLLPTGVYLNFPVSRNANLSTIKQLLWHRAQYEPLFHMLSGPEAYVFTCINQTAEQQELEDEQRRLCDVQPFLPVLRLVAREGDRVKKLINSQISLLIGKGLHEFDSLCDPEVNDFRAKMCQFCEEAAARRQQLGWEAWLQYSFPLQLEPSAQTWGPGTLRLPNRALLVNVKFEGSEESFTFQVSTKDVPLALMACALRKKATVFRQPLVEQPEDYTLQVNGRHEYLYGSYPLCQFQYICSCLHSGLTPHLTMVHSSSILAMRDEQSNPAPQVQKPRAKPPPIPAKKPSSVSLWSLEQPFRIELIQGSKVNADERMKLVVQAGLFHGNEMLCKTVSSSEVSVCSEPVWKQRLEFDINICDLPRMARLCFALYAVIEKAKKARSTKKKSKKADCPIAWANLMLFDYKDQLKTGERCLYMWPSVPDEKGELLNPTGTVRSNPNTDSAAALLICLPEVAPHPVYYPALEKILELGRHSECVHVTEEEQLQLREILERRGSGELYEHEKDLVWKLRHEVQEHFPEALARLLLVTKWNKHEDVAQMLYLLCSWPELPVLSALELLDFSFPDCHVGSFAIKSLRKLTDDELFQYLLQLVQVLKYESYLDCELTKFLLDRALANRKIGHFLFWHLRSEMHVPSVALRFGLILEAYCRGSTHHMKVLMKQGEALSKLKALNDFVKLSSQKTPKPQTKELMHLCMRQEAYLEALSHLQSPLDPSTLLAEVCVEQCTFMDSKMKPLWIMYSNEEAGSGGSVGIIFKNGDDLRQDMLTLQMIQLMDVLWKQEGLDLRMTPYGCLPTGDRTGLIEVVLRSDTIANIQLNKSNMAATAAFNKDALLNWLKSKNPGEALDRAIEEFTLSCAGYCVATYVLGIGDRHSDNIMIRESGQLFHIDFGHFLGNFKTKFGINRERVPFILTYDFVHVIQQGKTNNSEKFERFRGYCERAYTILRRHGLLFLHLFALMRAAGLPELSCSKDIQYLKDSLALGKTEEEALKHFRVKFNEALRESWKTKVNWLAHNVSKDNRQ
As to the kind of experiment: Selectivity interaction (KinomeScan (DiscoverX)) EUB0000695a PIK3CD. The settings on record: at 100 nM.

Assay [4] addresses BMP-2-inducible protein kinase (Homo sapiens) (UniProt Q9NSY1). As to the kind of experiment: Selectivity interaction (KINOMEscan (DiscoverX)) EUB0001868a BMP2K. Conditions: at 1 µM.
Assay [5] addresses Ribosomal protein S6 kinase alpha-4 (Homo sapiens) (UniProt O75676). As to the kind of experiment: Selectivity interaction (KinomeScan (DiscoverX)) EUB0000618a RPS6KA4. The settings on record: at 10 µM.

Chain of Ribosomal protein S6 kinase alpha-4 (Homo sapiens) (O75676 whole entry, looked up): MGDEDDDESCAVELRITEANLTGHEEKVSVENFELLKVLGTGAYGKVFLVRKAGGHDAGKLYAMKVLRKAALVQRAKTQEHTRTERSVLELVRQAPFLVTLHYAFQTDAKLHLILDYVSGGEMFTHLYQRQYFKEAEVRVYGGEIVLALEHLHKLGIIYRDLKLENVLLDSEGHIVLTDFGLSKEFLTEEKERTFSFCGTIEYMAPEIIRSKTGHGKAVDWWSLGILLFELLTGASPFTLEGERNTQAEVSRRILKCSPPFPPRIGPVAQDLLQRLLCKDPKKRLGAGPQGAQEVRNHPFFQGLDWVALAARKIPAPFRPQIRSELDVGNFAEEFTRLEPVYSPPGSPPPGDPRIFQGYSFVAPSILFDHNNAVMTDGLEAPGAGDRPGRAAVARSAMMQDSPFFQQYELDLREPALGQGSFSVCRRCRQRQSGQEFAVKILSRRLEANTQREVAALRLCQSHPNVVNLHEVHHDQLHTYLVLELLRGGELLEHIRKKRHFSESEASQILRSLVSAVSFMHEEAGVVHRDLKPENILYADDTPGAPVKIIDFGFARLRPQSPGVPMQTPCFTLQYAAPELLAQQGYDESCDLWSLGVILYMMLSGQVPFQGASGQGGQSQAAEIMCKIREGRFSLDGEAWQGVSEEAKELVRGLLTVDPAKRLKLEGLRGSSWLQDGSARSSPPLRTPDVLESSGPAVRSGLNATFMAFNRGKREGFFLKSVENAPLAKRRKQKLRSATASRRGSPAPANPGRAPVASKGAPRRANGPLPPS
Chain of BMP-2-inducible protein kinase (Homo sapiens) (Q9NSY1 whole entry, looked up): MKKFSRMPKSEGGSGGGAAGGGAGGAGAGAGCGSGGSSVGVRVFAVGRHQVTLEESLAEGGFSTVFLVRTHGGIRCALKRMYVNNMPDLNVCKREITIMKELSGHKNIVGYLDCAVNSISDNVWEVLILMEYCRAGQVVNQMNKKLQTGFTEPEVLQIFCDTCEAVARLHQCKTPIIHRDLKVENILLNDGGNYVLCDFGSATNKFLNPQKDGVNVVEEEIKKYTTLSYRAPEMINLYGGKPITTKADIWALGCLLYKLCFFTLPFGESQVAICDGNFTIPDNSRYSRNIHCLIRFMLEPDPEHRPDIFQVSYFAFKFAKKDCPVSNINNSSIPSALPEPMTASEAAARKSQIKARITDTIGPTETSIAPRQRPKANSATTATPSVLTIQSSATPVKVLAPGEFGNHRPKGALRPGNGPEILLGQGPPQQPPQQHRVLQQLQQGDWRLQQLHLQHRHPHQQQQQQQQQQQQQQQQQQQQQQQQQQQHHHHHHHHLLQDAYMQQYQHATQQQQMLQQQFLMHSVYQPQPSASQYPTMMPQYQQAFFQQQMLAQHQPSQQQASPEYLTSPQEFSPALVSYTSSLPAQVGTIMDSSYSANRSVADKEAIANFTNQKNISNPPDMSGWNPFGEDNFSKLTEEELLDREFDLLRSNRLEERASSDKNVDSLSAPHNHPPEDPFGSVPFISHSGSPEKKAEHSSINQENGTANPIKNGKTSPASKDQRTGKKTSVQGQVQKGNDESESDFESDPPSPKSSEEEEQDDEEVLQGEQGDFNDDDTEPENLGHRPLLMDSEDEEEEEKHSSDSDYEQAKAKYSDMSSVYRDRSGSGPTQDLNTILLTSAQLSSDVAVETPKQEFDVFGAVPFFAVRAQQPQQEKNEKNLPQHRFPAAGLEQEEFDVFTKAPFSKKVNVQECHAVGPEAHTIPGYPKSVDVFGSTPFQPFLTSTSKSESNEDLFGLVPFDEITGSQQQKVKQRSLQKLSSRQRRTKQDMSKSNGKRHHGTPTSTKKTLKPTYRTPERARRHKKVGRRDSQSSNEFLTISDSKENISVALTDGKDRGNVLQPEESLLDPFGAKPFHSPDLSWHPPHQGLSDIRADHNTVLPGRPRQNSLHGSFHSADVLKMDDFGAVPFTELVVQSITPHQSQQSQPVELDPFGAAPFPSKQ

In the case of `C=CC(=O)Nc1ccc(C(=O)Nc2[nH]nc3c2CN(C(=O)N[C@H](CN(C)C)c2ccccc2)C3(C)C)cc1`, in assay [1], the % of engagement was 2.1%.

In assay [2], `Cc1cc([C@@H](C)Nc2ccccc2C(=O)O)c2nc(N3CCOCC3)cc(=O)n2c1` [AZD-6482] yielded a % of control of 81%.

Take `Cc1cc(F)c(C(=O)Nc2cccc(-c3nncn3C(C)C)n2)cc1-n1cnc(C2CC2)c1`: the % of control in assay [3] amounted to 92%.

On to `Cc1cc(-c2ccnc(Nc3cnn(C)c3)n2)ccc1CNC(=O)N1CC(OC(C)C)C1`, for which the % of control in assay [4] was determined as 18%.

Consider `O[C@H]1CC[C@H](Nc2ncc3nc(Nc4c(F)cc(F)cc4F)n([C@H]4CCOC4)c3n2)CC1`, for which the % of control in assay [5] amounted to 100%.
